According to patent US20090036437A1, “PHARMACEUTICAL COMPOSITION COMPRISING PHENOXAZINIUM COMPOUND AS AN ACTIVE INGREDIENT” (priority 2005, published 2009):
Like-named read-outs stand apart in the source and are kept apart here.

Columns and labels:
Format in all cases: cell-based
[1] = tested on: Rat L6 cell (rat skeletal myoblast cell); test: in vitro growth-inhibiting assay of rat L6 cells
Description: Rat L6 cell (rat skeletal myoblast cell) was cultured in RPMI-1640 culture medium supplemented with 1% of L-glutamine (200 mM) and fetal calf serum (10%) under 5% CO2 concentration at 37° C. A test sample was prepared by dissolving the test compounds according to the present invention and a positive control drug in DMSO to a predetermined concentration. After pre-culture had been finished, the culture medium containing the cells in a logarithmic phase was placed into each well of a 96-well culture plate, and the test sample comprising the predetermined amount of the test compound, and DMSO without the test compound were added to the wells in duplicate.
(§1) After incubation of the culture plate for 72 hours in an incubator, a growth-inhibiting activity was assayed as follows. Alamar Blue aqueous solution (10 μL) was added to each well followed by a further two-hour culture. The culture plate was then attached to a fluorescence micro titer plate reader (Spectramax Gemeni XS; U.S. Molecular Device Co.), and the intensity of fluorescence at 588 nm was detected with an excitation wave length of 536 nm. A residual ratio of L6 cells was calculated with respect to a group treated with the test sample and a control group. A growth-inhibiting ratio for L6 cells was then calculated from the resulting residual ratio in accordance with the following equation to determine 50% growth-inhibiting concentration (EC50).
Growth-inhibiting ratio (%)=[1−(C−A)/(B−A)]×100 • A: Initial number of cells; • B: Number of the cells in the control after 3 days; and • C: Number of the cells treated with the test sample after 3 days Determination of Pharmaceutical effect for Chloroquine-Resistant Malaria

[2] = tested on: Trypanosoma brucei rhodensiense (STIB 900 strain); test: in vitro growth-inhibiting screening assay, protozoa of African trypanosomiasis; conditions: for EC50: 72 h, Alamar Blue, read-out: 50% growth-inhibiting concentration (nM) Trypanosoma brucei rhod.
Description: This test was done using a trypomastigote of the protozoa of Trypanosoma brucei rhodensiense (STIB 900 strain) ranging in blood stream. MEM medium sterilized by filtration was supplemented with 25 mM of N-2-hydroxyethylpiperazine-2-ethanesulfonic acid (HEPES), 1 g/L of glucose, 1% of MEM non-essential amino acids, 0.2 mM of 2-mercaptoethanol, 2 mM of sodium pyruvate, 1 mM of hypoxathine and 15% of heat-treated horse serum. The protozoa were cultured under CO2 concentration of 5%, at 37° C.
A test sample was prepared by dissolving the test compounds according to the present invention and a positive control drug (Melarsoprol) in DMSO to a predetermined concentration. Culture medium containing the protozoa of 8×10^3, and the test sample comprising the predetermined amount of the test compound, and DMSO without the test compound were added into each well of 96-well culture plate to a final volume of 100 μL in duplicate.
as §1, with “Co.),” for “Co.), and”, “with” for “with an”, “nm to calculate an infection” for “nm. A residual”, “the protozoa” for “L6 cells was calculated”, “ratio” for “ratio for L6 cells”, “infection” for “residual”
(§2) Growth-inhibiting ratio (%)=[1−(b−a)/(c−a)]×100 • a: Initial infection ratio; • b: Infection ratio of the test sample group; and • c: Infection ratio of the control group.
A selective toxicity coefficient, which is used as an index for the selective toxicity for the protozoa of African trypanosomiasis, was calculated by the following equation, and the pharmaceutical effect was determined.
Selective toxicity coefficient=(EC50 value of the test sample for rat L6 cell)/(EC50 value of the test sample for the protozoa of African typanosomiasis)

[3] = tested on: Leishmania donovani (MHOM/ET/67/L82 strain); test: in vitro growth-inhibiting screening assay, protozoa of Leishmaniasis; conditions: amastigotes; 72 h, Alamar Blue; read-out: growth-inhibiting concentration (nM) Leishmania donovani
Description: This test was done using the protozoa of Leishmania donovani (MHOM/ET/67/L82 strain). The protozoa were subcultured using Syrian Golden hamster and an amastigote was obtained therefrom. The amastigotes were cultured in SM medium supplemented with 10% of heat-treated fetal calf serum (pH 5.4) under CO2 concentration of 5%, at 37° C.
A test sample was prepared by dissolving the test compounds according to the present invention and a positive control drug (Miltefosine) in DMSO to a predetermined concentration. Culture medium containing a predetermined number of the protozoa was added into each well of a 96-well culture plate, and the concentration of the amastigotes was measured by means of CASY cell analysis system (Dermany, Scharfe Co.). Test sample comprising the predetermined amount of the test compound, and DMSO without the test compound were added to the wells in duplicate.
After incubation of the culture plate for 72 hours in an incubator, a growth-inhibiting activity was assayed as follows. Alamar Blue aqueous solution (10 μL) was added to each well followed by a further two-hour culture. The culture plate was then attached to a fluorescence micro titer plate reader (Spectramax Gemeni XS; U.S. Molecular device Co.), the intensity of fluorescence at 588 nm was detected with excitation wave length of 536 nm to calculate an infection ratio of the protozoa with respect to a group trated with the test sample and a control group. A growth-inhibiting ratio was then calculated from the resulting infection ratio in accordance with the following equation to determine 50% growth-inhibiting concentration (EC50).
as §2
A selective toxicity coefficient, which is used as an index for the selective toxicity for the protozoa of Leishmaniasis, was calculated by the following equation, and the pharmaceutical effect was determined.
A selective toxicity coefficient=(EC50 value of the test sample for rat L6 cell)/(EC50 value of the test sample for the protozoa of Leishmaniasis).

[4] = Table 3, 72 h, Alamar Blue, read-out: 50% growth-inhibiting concentration (nM) cytotoxicity L6
[5] = Table 8, read-out: 50% growth-inhibiting concentration (nM) cytotoxicity L6
[6] = Table 9, read-out: 50% growth-inhibiting concentration (nM) cytotoxicity L6
[7] = Table 10, read-out: growth-inhibiting concentration (nM) Cytotoxicity L6

Compound	EC50 [1] [nM]	EC50 [2] [nM]	EC50 [3] [nM]	EC50 [1, 4] [nM]	EC50 [1, 5] [nM]	EC50 [1, 6] [nM]	EC50 [1, 7] [nM]	Selective toxicity ([2]; EC50 rat L6 cell / EC50 protozoa of African trypanosomiasis)	EC50 ([2]; Trypanosoma brucei, STIB900) [nM]
CCN(CC)c1ccc2nc3ccc(=[N+](CC)CC)cc-3oc2c1.[Cl-] [A-1 (60% purity)]	3950	181	2810						
CCN(CC)c1ccc2nc3ccc(=[N+](CC)CC)cc-3oc2c1.[Cl-] [A-1 (>95% purity)]	20500								
CN(C)c1ccc2nc3ccc(=[N+](C)C)cc-3oc2c1.CN(C)c1ccc2nc3ccc(=[N+](C)C)cc-3oc2c1.[Cl-].[Cl-].[Cl][Zn][Cl] [Compound A-3]		565	887	8870	8870	8870	8870		
CC[N+](CC)=c1ccc2nc3ccc(N(C)C)cc3oc-2c1 [Compound A-4]								9.4	497
CCCC[N+](CCCC)=c1ccc2nc3ccc(N(CC)CC)cc3oc-2c1.[Cl-] [Compound A-6]		67.2	23	839	839	839	839		
CCCC[N+](CCCC)=c1ccc2nc3ccc(N(C)C)cc3oc-2c1.[O-][Cl+3]([O-])([O-])[O-] [Compound A-7]		113	6	409	409	409	409		
